Measurements as given in patent US9328369B2, “Process for production of useful substance, and surfactant for use in the process” (priority 2009, dated 2016).

Columns and labels:
Escherichia coli (β) = assay: Shake culture with surfactant, time course of protein production (Example 1, FIG. 1); format: cell-based; details: surfactant 1%; after 21 hours from the initiation
Protocol: Escherichia coli (β) was inoculated in 10 mL of an LB culture medium and was shake-cultured at 37° C. overnight. In this manner, a culture solution was prepared. The strains were collected using a centrifuge and the collected Escherichia coli (β) strain was resuspended in 10 ml of a TB culture medium (product of Difco). Shake culture at 37° C. induced expression of torA. Sampling was performed after 0, 0.5, 1, and 2 hours from the start of the shake culture, and harvesting using a centrifuge was carried out for each sampled solution. Collected bacterial cells were suspended in a buffer solution (50 mM Tris (pH 7.5), 100 mM NaCl) and ultrasonic fragmentation was performed (200 W, 10 minutes). Then, an SDS-PAGE analysis was performed to quantify the produced recombinant protein band. Based on the obtained data, the protein amount per gram of the bacterial cell was calculated and a graph was constructed.
The same processes were carried out as in Comparative Example 1 except that the surfactant A-7 was used as the surfactant (A) for the expression induction in an amount of 1% on the basis of the weight of the culture solution, and that sampling was performed after 0, 2, 4, 15, 19, and 21 hours from the initiation and analysis was performed on the supernatants of the centrifuged samples. A graph was similarly constructed.

Escherichia coli(ε) = assay: Production by secretion in microbial culture system, protease expressing strain (Table 5); format: cell-based; details: Example 12, surfactant 1 wt %
Excerpt: A subtilisin Carlsberg gene of a Bacillus licheniformis was amplified by the PCR method using primers 7 and 8 (Table 4). After being treated with restriction enzymes NcoI and BamHI, a PCR amplified fragment was bound to an NcoI restriction enzyme site and a BamHI restriction enzyme site of a pET-22b plasmid (product of Novagen). Then, the plasmid was transformed into a BL21 (DE3) Escherichia coli strain (product of Novagen) to form Escherichia coli (ε) that expresses protease.
Overnight cultures (1 ml) of Escherichia coli (δ) obtained in Production Example 4 and Escherichia coli (ε) obtained in Production Example 5 were respectively prepared as Comparative Example 2 and Comparative Example 4. An amount of 0.5 ml of each was inoculated in 5 ml of an LB culture solution (containing 100 mg/L of ampicillin) and was shake-cultured at 30° C. for 3 hours. In this manner, pre-culture solutions were prepared. […] The whole protein in the culture solution was analyzed by SDS-PAGE. Based on the obtained amount of the protein band, the recombinant protein was quantified.
Performance of this processes for several times clarified the proportional relationship between the turbidity of the culture solution and the dried cell density. Therefore, the dried cell density was obtained from the measured turbidity in each of Comparative Examples 2 to 4 and Examples 2 to 14. […]

Substance	Dried cell density of the culture solution (Escherichia coli (β))	Turbidity (Escherichia coli(ε))	Dried cell density (Escherichia coli(ε); obtained from turbidity)	Quantitative value of produced recombinant protein (Escherichia coli(ε); supernatant, SDS-PAGE)
Sodium cocaminopropionate [A-7]	1.72 g/L			
Cured palm oil fatty acid amidopropyl dimethyl aminoacetate betaine [A-6]		95	26.6 g/L	0.37 g/L
